Test results from PMC9578396, “Intrinsic Antibacterial Activity of Xeruborbactam In Vitro: Assessing Spectrum and Mode of Action” (Antimicrobial Agents and Chemotherapy, 2022).
Converted amounts (≈) assume the structure as drawn.

How the values were obtained:
PBP2 [1] = system: PBP2; parameters: method as in PMID 18250190; conditions: value in parentheses; E. coli MC1400; cited from earlier work
PBP1b = system: PBP1b; parameters: method as in earlier work; conditions: value in parentheses; A. baumannii ATCC 19606; cited from earlier work
PBP2 [2] = target: PBP2 (Klebsiella pneumoniae, UniProt A6T696); parameters: method as in PMID 29712652; conditions: read-out: IC50, PBP2; value in parentheses; K. pneumoniae ATCC 43816; cited from earlier work
Proteus mirabilis = assay: Broth microdilution MIC (CLSI), Proteus mirabilis; type: cell-based; conditions: 23 isolates
Text: Bacterial isolates were subjected to broth microdilution susceptibility testing, performed according to Clinical and Laboratory Standards Institute (CLSI) methods ([46]), using panels prepared in-house. Meropenem was purchased from Sandoz, and all other antibiotics were from Sigma-Aldrich. Xeruborbactam was synthesized at Qpex Biopharma, San Diego, CA. Avibactam was purchased from eNovation Chemicals LLC, Bridgewater, NJ, USA; zidebactam was from MedKoo Biosciences, Inc., Morrisville, NC, and nacubactam was from Advanced ChemBlocks, Hayward, CA. Durlobactam was synthesized at Acme Bioscience, Palo Alto, CA, USA.

Sequence of PBP2 (Klebsiella pneumoniae, UniProt A6T696) (A6T696 entry or part of it): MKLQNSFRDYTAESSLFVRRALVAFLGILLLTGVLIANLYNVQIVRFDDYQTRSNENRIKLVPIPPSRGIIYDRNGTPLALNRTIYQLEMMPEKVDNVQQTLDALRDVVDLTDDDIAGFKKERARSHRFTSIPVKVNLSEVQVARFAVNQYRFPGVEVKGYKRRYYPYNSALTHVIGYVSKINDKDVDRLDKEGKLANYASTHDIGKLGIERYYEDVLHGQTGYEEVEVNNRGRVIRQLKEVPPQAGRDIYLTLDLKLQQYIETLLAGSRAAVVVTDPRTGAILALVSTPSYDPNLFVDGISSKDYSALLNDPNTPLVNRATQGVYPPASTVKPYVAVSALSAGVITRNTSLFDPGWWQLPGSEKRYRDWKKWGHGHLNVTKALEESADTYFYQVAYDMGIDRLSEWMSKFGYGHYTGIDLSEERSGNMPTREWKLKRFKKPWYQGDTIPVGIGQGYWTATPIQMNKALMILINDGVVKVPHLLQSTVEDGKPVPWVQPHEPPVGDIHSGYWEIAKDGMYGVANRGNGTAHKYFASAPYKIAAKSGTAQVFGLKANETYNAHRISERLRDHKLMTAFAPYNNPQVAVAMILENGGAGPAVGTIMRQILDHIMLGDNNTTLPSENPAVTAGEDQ

C[C@@H](O)[C@H]1C(=O)N2C(C(=O)O)=C(S[C@@H]3CN[C@H](C(=O)N(C)C)C3)[C@H](C)[C@H]12 [Meropenem]
IC50 (PBP2 [1]): 3 nM | IC50 (PBP1b): 500 nM | IC50 (PBP2 [2]): < 20 nM

O=C(O)c1c(F)ccc2c1OB(O)[C@@H]1C[C@H]21 [Xeruborbactam]
MIC50 (Proteus mirabilis): 16 µg/mL (≈ 72.1 µM) | MIC90 (Proteus mirabilis): 32 µg/mL (≈ 144 µM)
